Test results from patent US20130338178A1, “SIRTUIN MODULATORS AS INHIBITORS OF CYTOMEGALOVIRUS” (THE TRUSTEES OF PRINCETON UNIVERSITY, priority 2011, published 2013).
Read-outs that look alike come from different tables or passages of the source. Peptide text beside a SMILES is read from it.

Tests used:
HCMV [1] = assay: Yield of infectious HCMV from drug-treated infected MRC5 fibroblasts; type: cell-based, human cytomegalovirus; conditions: for production of infectious HCMV: FIG. 5; for reduction of the yield of infectious HCMV by a factor of: MRC5, 10% fetal calf serum, added 4 hours after infection
HCMV [2] = type: cell-based, human cytomegalovirus
[3] = tested on: Influenza A (WSN/33/A, PR8); type: cell-based, influenza A virus
Sirt5 = target: T1, Sirt5 (Homo sapiens, UniProt Q9NXA8); conditions: cited from earlier work
T1 sequence (Q9NXA8 37-310): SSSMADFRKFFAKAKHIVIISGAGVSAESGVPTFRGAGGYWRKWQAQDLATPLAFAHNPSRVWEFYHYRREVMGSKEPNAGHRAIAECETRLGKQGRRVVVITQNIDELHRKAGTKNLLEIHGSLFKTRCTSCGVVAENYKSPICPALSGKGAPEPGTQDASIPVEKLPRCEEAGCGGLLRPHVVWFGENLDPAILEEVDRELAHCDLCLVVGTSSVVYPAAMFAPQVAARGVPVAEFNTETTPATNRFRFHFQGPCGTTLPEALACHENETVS

Sirt6 = Sirt6 (Homo sapiens, UniProt Q8N6T7); conditions: cited from earlier work
Sirt6, sequence (Q8N6T7 whole entry): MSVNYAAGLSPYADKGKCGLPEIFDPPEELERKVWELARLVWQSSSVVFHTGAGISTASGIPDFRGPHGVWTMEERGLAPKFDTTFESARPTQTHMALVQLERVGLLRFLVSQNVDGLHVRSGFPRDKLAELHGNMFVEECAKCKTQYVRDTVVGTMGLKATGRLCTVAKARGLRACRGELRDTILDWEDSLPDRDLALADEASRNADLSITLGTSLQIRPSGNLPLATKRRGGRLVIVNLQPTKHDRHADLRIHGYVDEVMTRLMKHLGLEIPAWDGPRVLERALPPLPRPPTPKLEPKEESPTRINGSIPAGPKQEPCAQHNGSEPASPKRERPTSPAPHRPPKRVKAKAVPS

Hst2 = Hst2 (Saccharomyces cerevisiae, UniProt P53686); conditions: cited from earlier work
Hst2, sequence (P53686 whole entry): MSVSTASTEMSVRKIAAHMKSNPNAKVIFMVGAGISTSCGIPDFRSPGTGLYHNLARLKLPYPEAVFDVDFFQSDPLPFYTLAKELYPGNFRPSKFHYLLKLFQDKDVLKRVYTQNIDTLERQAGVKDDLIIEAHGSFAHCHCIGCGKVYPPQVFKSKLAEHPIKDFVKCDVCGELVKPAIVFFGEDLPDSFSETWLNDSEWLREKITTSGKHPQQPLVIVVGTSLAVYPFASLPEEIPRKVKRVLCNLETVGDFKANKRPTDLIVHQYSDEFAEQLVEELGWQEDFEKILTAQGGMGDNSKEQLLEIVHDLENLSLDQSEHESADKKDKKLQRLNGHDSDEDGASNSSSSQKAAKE

SIRT1 [4] = target: T2, SIRT1 (Homo sapiens, UniProt Q96EB6); conditions: cited from earlier work
T2 sequence (Q96EB6 1-747): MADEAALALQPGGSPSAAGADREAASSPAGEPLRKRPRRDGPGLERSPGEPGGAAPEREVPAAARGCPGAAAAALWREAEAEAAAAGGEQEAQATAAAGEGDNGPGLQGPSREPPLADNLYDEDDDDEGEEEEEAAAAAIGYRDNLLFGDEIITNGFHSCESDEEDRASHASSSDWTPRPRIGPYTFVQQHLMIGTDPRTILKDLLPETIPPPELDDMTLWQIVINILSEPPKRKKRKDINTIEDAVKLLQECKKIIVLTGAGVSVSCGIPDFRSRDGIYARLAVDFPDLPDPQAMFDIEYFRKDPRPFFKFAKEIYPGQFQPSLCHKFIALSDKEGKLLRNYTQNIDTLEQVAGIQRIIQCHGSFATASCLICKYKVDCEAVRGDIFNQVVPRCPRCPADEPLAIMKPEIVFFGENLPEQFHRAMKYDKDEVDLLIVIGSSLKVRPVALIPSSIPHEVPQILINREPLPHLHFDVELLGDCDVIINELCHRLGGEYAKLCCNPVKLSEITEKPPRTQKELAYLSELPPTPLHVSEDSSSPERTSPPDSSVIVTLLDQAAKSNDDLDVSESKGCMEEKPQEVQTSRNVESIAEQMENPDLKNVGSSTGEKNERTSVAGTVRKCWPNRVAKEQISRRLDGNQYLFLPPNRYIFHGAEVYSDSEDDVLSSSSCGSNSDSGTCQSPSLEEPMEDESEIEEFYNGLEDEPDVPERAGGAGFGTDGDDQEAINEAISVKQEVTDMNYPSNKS

HCMV pUL99 = assay: Late viral pUL99 expression and cytopathic effect in HCMV infected MRC5 cells; type: cell-based, human cytomegalovirus
SIRT1 [5] = target: T2, SIRT1; conditions: cited from earlier work; remark: listed apart in the source
SIRT2 [6] = target: T3, SIRT2 (Homo sapiens, UniProt Q8IXJ6); conditions: 100 μM; cited from earlier work
T3 sequence (Q8IXJ6 1-389): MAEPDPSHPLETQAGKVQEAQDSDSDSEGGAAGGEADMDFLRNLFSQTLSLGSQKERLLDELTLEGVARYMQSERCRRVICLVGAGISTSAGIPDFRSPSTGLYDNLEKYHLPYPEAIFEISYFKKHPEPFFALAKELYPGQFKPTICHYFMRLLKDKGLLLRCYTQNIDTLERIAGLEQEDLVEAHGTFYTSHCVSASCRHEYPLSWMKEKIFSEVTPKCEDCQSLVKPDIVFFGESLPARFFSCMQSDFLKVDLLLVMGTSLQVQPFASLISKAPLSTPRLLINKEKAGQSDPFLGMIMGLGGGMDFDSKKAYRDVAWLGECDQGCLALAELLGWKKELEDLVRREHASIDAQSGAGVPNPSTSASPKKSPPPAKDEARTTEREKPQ

SIRT1 [7] = target: T2, SIRT1; conditions: cited from earlier work; remark: listed apart in the source
SIRT2 [8] = target: T3, SIRT2; conditions: cited from earlier work
SIRT3 = target: T4, SIRT3 (Homo sapiens, UniProt Q9NTG7); conditions: cited from earlier work
T4 sequence (Q9NTG7 1-399): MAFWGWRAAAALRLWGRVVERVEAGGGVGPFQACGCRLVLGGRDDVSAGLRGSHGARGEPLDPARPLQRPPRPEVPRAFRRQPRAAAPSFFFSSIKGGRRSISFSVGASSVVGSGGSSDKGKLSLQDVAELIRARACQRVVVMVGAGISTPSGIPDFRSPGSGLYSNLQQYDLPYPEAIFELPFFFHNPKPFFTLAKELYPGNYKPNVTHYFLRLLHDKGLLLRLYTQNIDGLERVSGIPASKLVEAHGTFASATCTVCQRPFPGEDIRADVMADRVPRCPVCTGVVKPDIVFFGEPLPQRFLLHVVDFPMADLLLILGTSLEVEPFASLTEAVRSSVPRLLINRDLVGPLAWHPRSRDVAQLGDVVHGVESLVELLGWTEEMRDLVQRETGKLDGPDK

SIRT2 [9] = target: T3, SIRT2; conditions: cited from earlier work; remark: listed apart in the source
[10] = tested on: Burkitt lymphoma xenografts; conditions: mouse, in vivo; cited from earlier work
[11] = mice; cited from earlier work
[12] = tested on: tumor necrosis factor alpha (TNFα) release; conditions: cited from earlier work

In the case of CC(C(=O)Nc1cccc(/N=C/c2c(O)ccc3ccccc23)c1)c1ccccc1 (stereo not shown) [Salermide], the “production of infectious HCMV” value (HCMV [1]) is reported as “blocked”, the “inhibition of HCMV production by a factor of” value (HCMV [2]) is reported as “about 5” and the “inhibition of the production of HCMV progeny by a factor of” value (HCMV [2]) is reported as about 80. The “production of infectious Influenza A progeny” value [3] was “inhibited”.

In the case of O=S1(=O)C(c2ccccc2)C(N2CCCCC2)C1C1CC2c3ccccc3C1c1ccccc12 (stereo not shown) [CSC33], the Sirt5 effect (Sirt5) is listed as “activation” and the Sirt6 effect (Sirt6) is listed as “activation”.

For CC(C)CCCCCCCCC[C@@H]1CC(=O)NC(CCC(=O)O)C(=O)N[C@@H](CC(C)C)C(=O)N[C@H](CC(C)C)C(=O)N[C@@H](C(C)C)C(=O)N[C@@H](CC(=O)O)C(=O)N[C@H](CC(C)C)C(=O)N[C@@H](CC(C)C)C(=O)O1 (stereo partly drawn) [Surfactin, surfactin] (HELM PEPTIDE1{[O=C(O)CCC(N[*:1])C(=O)[*:2]].L.[dL].V.D.[dL].L}|CHEM1{[CC(C)CCCCCCCCC[C@H](CC(=O)[*:1])O[*:2]]}$PEPTIDE1,CHEM1,1:R1-1:R1|PEPTIDE1,CHEM1,7:R2-1:R2$$$V2.0), the IC50 (Hst2) is given as over 700 µM and the IC50 (SIRT1 [4]) is given as over 600 µM.

With Oc1ccc(C=Cc2cc(O)cc(O)c2)cc1 [Resveratrol] the “reduction of the yield of infectious HCMV by a factor of” value (HCMV [1]; 50 μM) was over 18 fold, the “reduction of the yield of infectious HCMV by a factor of” value (HCMV [1]; 100 μM) was over 100 fold and the “cytopathic effect of HCMV” value (HCMV pUL99; HCMV infected MRC5 cells, added 4 hours after infection, data not shown) was “inhibited”. The “expression of late viral pUL99” value (HCMV pUL99; dose dependent, data not shown) was “substantially reduced”, the “increase of SIRT1 activity” value (SIRT1 [5]; 46 μM) was 1.5 fold and the “increase of SIRT1 activity” value (SIRT1 [5]; 100 μM) was 13 fold. For the same compound, the “EC1.5: The concentration to activate 1.5-fold” value (SIRT1 [5]) was 46 µM and the “activation of SIRT2” value (SIRT2 [6]) was “does not activate”.

In the case of Cc1ccc2[nH]c3c(c2c1)CCCC3C(N)=O (stereo not shown) [Indole 2], the IC50 (Hst2) is listed as 14.5 ± 0.6 µM and the IC50 (SIRT1 [4]) is listed as 0.64 ± 0.06 µM.

In the case of CC(=O)Nc1ccc(NC(=S)NC(=O)c2ccc(C(C)(C)C)cc2)cc1 [Tenovin 1], the IC50 (SIRT1 [7]) is given as 21 µM, the IC50 (SIRT2 [8]) is given as 10 µM and the IC50 (SIRT3) is given as 67 µM.

For C/C(=C1/C=C(c2ccc3ccccc3c2)OC1=O)c1ccc(C(C)C)cc1 [CSC9], the Sirt2 effect (SIRT2 [9]) is given as “inhibition” and the Sirt5 effect (Sirt5) is given as “activation^c”.

For O=S(=O)(c1cccc(C(F)(F)F)c1)N1c2ccccc2-n2cccc2C1c1cccnc1 (stereo not shown) [CSC38], the Sirt2 effect (SIRT2 [9]) is listed as “inhibition”, the Sirt5 effect (Sirt5) is listed as “activation” and the Sirt6 effect (Sirt6) is listed as “activation”.

In the case of Cambinol, the virus yield (HCMV [1]; 50 μM, 96 h after infection, limit of detection) is reported as < 10^2 IU/ml, the pUL99 accumulation (HCMV pUL99; 50 μM, data not shown) is reported as “substantial block” and the “inhibition of influenza A in combination with oseltamivir” value [3] is reported as “cooperated with oseltamivir”. The “production of infectious Influenza A progeny” value [3] was “inhibited”, the Burkitt lymphoma xenografts [10] was “inhibits” and the IC50 (Hst2) was over 1000 µM. For the same compound, the tolerability [11] was “well-tolerated”.

For CN(C)CCCCC(=O)Nc1ccc(NC(=S)NC(=O)c2ccc(C(C)(C)C)cc2)cc1 [Tenovin 6], the “production of infectious HCMV” value (HCMV [1]) is given as “blocked” and the IC50 (Hst2) is given as over 100 µM.

In the case of CN1CC(C(=O)NC2(C)OC3(O)C4CCCN4C(=O)C(Cc4ccccc4)N3C2=O)C=C2c3cccc4[nH]cc(c34)CC21 (stereo not shown) [CSC21], the Sirt2 effect (SIRT2 [9]) is listed as “inhibition”, the Sirt5 effect (Sirt5) is listed as “inhibition” and the Sirt6 effect (Sirt6) is listed as “inhibition”.

For NC(=O)C1CCCc2c1[nH]c1ccc(Cl)cc21 (stereo not shown) [EX-527], the “accumulation of late viral pUL99 protein” value (HCMV pUL99; 10 μM, data not shown) was “increased”.

In the case of Nc1c(S(=O)(=O)c2ccccc2)c2nc3ccccc3nc2n1-c1ccc(F)cc1 [CAY10602], the pUL99 expression (HCMV pUL99; 25 μM) is listed as “almost completely inhibited” and the “suppression of TNFα release, extent relative to resveratrol” value [12] is listed as 10 fold.

For O=Cc1ccc2c(c1)C(=O)c1ccc3c4ccc5c6c(ccc(c7ccc-2c1c37)c64)-c1ccc(C(=O)O)cc1C5=O [CSC14], the Sirt2 effect (SIRT2 [9]) is given as “inhibition” and the Sirt5 effect (Sirt5) is given as “inhibition”.
